Measured values as given in patent US8148070B2, “Genetic polymorphisms associated with coronary events and drug response, methods of detection and uses thereof” (Celera Corporation, priority 2007, dated 2012).

Test system: elderly men and women (ages 70-82)
Assay: PROSPER trial: pravastatin vs placebo, coronary events in elderly by KIF6 719Arg carrier status
Format: in vivo, human
Details: for hazard ratio (coronary events, pravastatin vs placebo) / Hazard ratio: PROSPER; for hazard ratio (coronary events, pravastatin vs placebo): ages 70-82; for event (number of patients) / no event (number of patients): pravastatin arm of PROSPER; for Hazard ratio: pravastatin vs placebo, risk of CHD
Method: In this analysis, the KIF6 Trp719Arg polymorphism was analyzed in samples from the “Prospective Study of Pravastatin in the Elderly at Risk” (PROSPER) trial (PROSPER is described further in Shepherd et al., Lancet. 2002 Nov. 23; 360(9346):1623-30). PROSPER was both a secondary and primary trial of elderly men and women (ages 70-82). […] Since an interaction has been observed between KIF6 carrier status and prior vascular events, groups with and without prior vascular events were genotyped separately.
5752 patients were genotyped within the PROSPER trial, and Cox proportional hazards models were used to investigate (1) the risk for coronary events in 719Arg carriers compared with noncarriers in a placebo arm, and (2) the effect of statin therapy according to 719Arg carrier status in a pravastatin arm.
To assess the effect of pravastatin, risk estimates were used to compare the pravastatin arm with the placebo arm in subgroups defined by genotypes.

[1] = carrier (minor homozygote + heterozygote)

CC[C@H](C)C(=O)O[C@H]1C[C@H](O)C=C2C=C[C@H](C)[C@H](CC[C@@H](O)C[C@@H](O)CC(=O)O)[C@H]21 [Pravastatin, pravastatin]
hazard ratio (coronary events, pravastatin vs placebo) (719Arg carriers with prior vascular disease): 0.67 | hazard ratio (coronary events, pravastatin vs placebo) (noncarriers with prior vascular disease): 0.92 | event (number of patients) [1]: 103 | no event (number of patients) [1]: 657 | event (number of patients) (rs20455 genotype AA): 80 | no event (number of patients) (rs20455 genotype AA): 456 | event (number of patients) (rs20455 genotype AG): 85 | no event (number of patients) (rs20455 genotype AG): 501 | event (number of patients) (rs20455 genotype GG): 18 | no event (number of patients) (rs20455 genotype GG): 156 | Hazard ratio (KIF6 719Arg carrier, Model 1 unadjusted): 0.67 | Hazard ratio (KIF6 719Arg carrier, Model 2 adjusted for age, sex and smoking status): 0.67 | Hazard ratio (KIF6 719Arg carrier, Model 3 adjusted for age, sex, smoking status, history of hypertension, LDL, HDL and history of diabetes): 0.67 | Hazard ratio (KIF6 rs20455 heterozygote, Model 1 unadjusted): 0.67 | Hazard ratio (KIF6 rs20455 heterozygote, Model 2 adjusted for age, sex and smoking status): 0.67 | Hazard ratio (KIF6 rs20455 heterozygote, Model 3 adjusted for age, sex, smoking status, history of hypertension, LDL, HDL and history of diabetes): 0.68 | Hazard ratio (KIF6 rs20455 major homozygote (noncarrier), Model 1 unadjusted): 0.93 | Hazard ratio (KIF6 rs20455 major homozygote (noncarrier), Model 2 adjusted for age, sex and smoking status): 0.92 | Hazard ratio (KIF6 rs20455 major homozygote (noncarrier), Model 3 adjusted for age, sex, smoking status, history of hypertension, LDL, HDL and history of diabetes): 0.92 | Hazard ratio (KIF6 rs20455 minor homozygote, Model 1 unadjusted): 0.65 | Hazard ratio (KIF6 rs20455 minor homozygote, Model 2 adjusted for age, sex and smoking status): 0.65 | Hazard ratio (KIF6 rs20455 minor homozygote, Model 3 adjusted for age, sex, smoking status, history of hypertension, LDL, HDL and history of diabetes): 0.63
